The supplement of paper PMC10307832

Assays:
Assay in all cases: relative viability (nuclei count vs DMSO), 5 days (fraction); higher = more cells survive
[1] = compound: Cc1ccc(C(=O)Nc2cccc(C(F)(F)F)c2)cc1Nc1cncc(C(N)=O)c1 [ALW-II-49-7] + Nc1ncn([C@H]2C[C@H](O)[C@@H](CO)O2)c(=O)n1 [Decitabine] (partner 2 µM)
In short: (§1)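 A single step with final 0.05% Triton X-100, 1% formaldehyde and 1 ug/ml Hoechst fixed the cells and stained nuclei 5 days after treatment. Lung cancer cell lines in 1536-well plates had been treated by pin tool the day after seeding with one drug alone or a fixed anchor-drug dose plus five library-drug doses (not always all listed) in √10 steps, and nuclei were counted on 4× images. Relative viability is the ratio of nuclei in treated wells to nuclei in vehicle wells, taken as the median of duplicate plates.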

[2] = compound: Cc1ccc(C(=O)Nc2cccc(C(F)(F)F)c2)cc1Nc1cncc(C(N)=O)c1 [ALW-II-49-7] + O=C(c1cc(Cc2n[nH]c(=O)c3ccccc23)ccc1F)N1CCN(C(=O)C2CC2)CC1 [Olaparib] (partner 8 µM)
In short: as §1

[3] = compound: Cc1nc(Nc2ncc(C(=O)Nc3c(C)cccc3Cl)s2)cc(N2CCN(CCO)CC2)n1 [Dasatinib] + Cc1nc(NC(=O)N2CCC[C@H]2C(N)=O)sc1-c1ccnc(C(C)(C)C(F)(F)F)c1 [Alpelisib] (partner 2 µM)
In short: as §1

[4] = compound: Cc1nc(Nc2ncc(C(=O)Nc3c(C)cccc3Cl)s2)cc(N2CCN(CCO)CC2)n1 [Dasatinib] + O=C(c1cc(Cc2n[nH]c(=O)c3ccccc23)ccc1F)N1CCN(C(=O)C2CC2)CC1 [Olaparib] (partner 8 µM)
In short: as §1

Cell Line	relative viability ([1]; first compound 0.08 µM)	relative viability ([1]; first compound 0.253 µM)	relative viability ([1]; first compound 0.8 µM)	relative viability ([1]; first compound 2.53 µM)	relative viability ([1]; first compound 8 µM)	relative viability ([2]; first compound 0.08 µM)	relative viability ([2]; first compound 0.253 µM)	relative viability ([2]; first compound 0.8 µM)	relative viability ([2]; first compound 2.53 µM)	relative viability ([2]; first compound 8 µM)	relative viability ([3]; first compound 0.005 µM)	relative viability ([3]; first compound 0.01581 µM)	relative viability ([3]; first compound 0.05 µM)	relative viability ([3]; first compound 0.1581 µM)	relative viability ([3]; first compound 0.5 µM)	relative viability ([4]; first compound 0.005 µM)	relative viability ([4]; first compound 0.01581 µM)	relative viability ([4]; first compound 0.05 µM)	relative viability ([4]; first compound 0.1581 µM)	relative viability ([4]; first compound 0.5 µM)
NCI-H2347	0.714	0.647	0.57	0.718	0.681	0.596	0.568	0.562	0.545	0.556	0.845	0.817	0.783	0.327	0.34	0.566	0.508	0.482	0.269	0.256
A-427	0.531	0.585	0.616	0.612	0.655	0.673	0.831	0.81	0.672	0.71	0.961	1.06	1	0.573	0.533	0.704	0.646	0.637	0.574	0.563
HCC-366	0.354	0.371	0.374	0.385	0.307	0.423	0.333	0.377	0.337	0.301	0.096	0.174	0.141	0.151	0.103	0.263	0.206	0.217	0.157	0.141
HCC-78	0.68	0.639	0.71	0.666	0.619	1.02	0.77	0.767	0.625	0.738	0.259	0.261	0.304	0.257	0.176	0.596	0.649	0.639	0.577	0.243
PC-14	0.247	0.22	0.218	0.266	0.222	0.282	0.227	0.264	0.253	0.273	0.916	0.85	0.734	0.546	0.185	0.29	0.31	0.368	0.224	0.0781
NCI-H2087	0.244	0.254	0.212	0.311	0.203	0.583	0.569	0.463	0.578	0.514	0.988	0.957	1.34	1.01	0.613	0.635	0.55	0.902	0.42	0.349
HOP-62	0.207	0.286	0.165	0.223	0.285	0.162	0.378	0.595	–	0.172	1.27	1.02	0.838	0.679	0.272	0.32	0.381	0.307	0.434	0.204
EKVX	0.513	0.321	0.327	0.318	0.408	0.77	0.847	0.823	0.374	0.855	0.774	0.637	0.651	0.557	0.145	0.852	0.669	0.676	0.338	0.189
